We go through one cell line from the supplement of paper PMC10307832.

What all share (experiment): relative viability (nuclei count vs DMSO), 5 days (fraction); higher = more cells survive
Compound in test [1]: CC1(C)CCC(CN2CCN(c3ccc(C(=O)NS(=O)(=O)c4ccc(NCC5CCOCC5)c([N+](=O)[O-])c4)c(Oc4cnc5[nH]ccc5c4)c3)CC2)=C(c2ccc(Cl)cc2)C1 [Venetoclax] + Cc1cc(Nc2cc(N3CCN(C)CC3)nc(Sc3ccc(NC(=O)C4CC4)cc3)n2)n[nH]1 [Tozasertib] (partner 0.1 µM)
The essentials:
(§1)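 Nuclei were stained with Hoechst during a one-step fixation (final 0.05% Triton X-100, 1% formaldehyde, 1 ug/ml Hoechst) carried out 5 days after dosing, then counted on 4× images. The cells, lung cancer lines in 1536-well plates, had been dosed by pin tool the day after seeding with one drug alone or a fixed anchor-drug dose plus five library-drug doses (not always all listed) in √10 steps. Relative viability is the nuclei count in treated wells divided by that in vehicle wells, and each value is the median of duplicate plates.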

Compound in test [2]: Cn1cnc2c(F)c(Nc3ccc(Br)cc3Cl)c(C(=O)NOCCO)cc21 [Selumetinib] + O=C(c1cc(Cc2n[nH]c(=O)c3ccccc23)ccc1F)N1CCN(C(=O)C2CC2)CC1 [Olaparib] (partner 8 µM)
In a few lines:
as §1

Compound in test [3]: Cn1cnc2c(F)c(Nc3ccc(Br)cc3Cl)c(C(=O)NOCCO)cc21 [Selumetinib] + CC(C)C[C@H](NC(=O)[C@H](Cc1ccccc1)NC(=O)c1cnccn1)B(O)O [Bortezomib] (partner 0.002 µM)
The essentials: as §1

Compound in test [4]: Cn1cnc2c(F)c(Nc3ccc(Br)cc3Cl)c(C(=O)NOCCO)cc21 [Selumetinib] + Cc1nc(Nc2ncc(C(=O)Nc3c(C)cccc3Cl)s2)cc(N2CCN(CCO)CC2)n1 [Dasatinib] (partner 0.075 µM)
The essentials:
as §1

Take UMC-11: the relative viability in test [1] (first compound 0.01 µM) was found to be 0.205; in test [1] (first compound 0.03162 µM), 0.213; in test [1] (first compound 0.1 µM), 0.2; in test [1] (first compound 0.3162 µM), 0.191; in test [1] (first compound 1 µM), 0.187; in test [2] (first compound 0.02 µM) it was 0.32. For the same cell line, the relative viability in test [2] (first compound 0.06325 µM) was determined as 0.33; in test [2] (first compound 0.2 µM), 0.384; in test [2] (first compound 0.6325 µM), 0.914; in test [3] (first compound 0.02 µM), 0.685; in test [3] (first compound 0.06325 µM), 0.589; in test [3] (first compound 0.2 µM) it was 0.974. Also, the relative viability in test [3] (first compound 0.6325 µM) worked out at 0.848; in test [4] (first compound 0.02 µM), 0.465; in test [4] (first compound 0.06325 µM), 0.486; in test [4] (first compound 0.2 µM), 0.474; in test [4] (first compound 0.6325 µM), 0.547.
